From patent publication US20080063601A1, “Compositions and methods relating to polycystic kidney disease” (priority 2004, published 2008)
Like-named read-outs stand apart in the source and are kept apart here.

What was measured:
[1] = Dose finding / toxicity in pregnant C57B1/6 mice; assay type: in vivo
Protocol: Triptolide has been previously studied in rodent models of tumor regression (Tengchaisri, et al., 1998, Cancer Lett 133, 169-175; Yang, et al., 2003, Mol Cancer Ther 2, 65-72), but it had not yet been tested in a system utilizing pregnant females. To first establish a potential therapeutic versus lethal concentration of drug delivery, pregnant C57B1/6 mice were treated with incremental concentrations of triptolide between 0.01-0.15 mg/kg/day i.p. injections. Toxicity was assessed as determined by resorption of all embryos or the preponderance of a large percentage of stillborns. With reference to these criteria, triptolide toxicity was determined to be most prominent at concentrations of 0.1 mg/kg/day or greater. […] Another experimental parameter involved the timing of the start of triptolide injections, since polycystin-2 has been implicated in left-right axis formation in the developing embryo at approximately E7.75 (McGrath, et al., 2003, Cell 114, 61-73; Pennekamp, et al., 2002, Curr Biol 12, 938-943). Applicants therefore chose E10.5 as the start of triptolide injections, in order to allow for a normal polycystin-2 mediated patterning event and still leave sufficient time to act on cyst formation during kidney organogenesis.

in vitro = assay type: cell-based; details: human
Description: (§1) To investigate further the role of calcium in triptolide function Applicant utilized a system to buffer intracellular calcium levels. Various GFP-parvalbumin (PV) fusion proteins can be specifically localized to either the nucleus or the cytoplasm through a nuclear localization or exclusion signal (NLS or NES, respectively) (Pusl, et al., 2002, J Biol Chem 277, 27517-27527). Parvalbumin has two EF-hand calcium binding domains and can efficiently reduce the availability of free calcium in the cell (Pauls, et al., 1996, Biochim Biophys Acta 1306, 39-54). HeLa cells were transiently transfected with the GFP vector control, NES-PV-GFP, or NLS-PV-GFP in calcium containing media and efficient expression of each construct was determined by GFP localization (FIG. 6A). Normal cell growth was first assessed throughout 48 hours with each of the constructs. […] For triptolide experiments, cells were transfected and allowed to express the construct for 24 hours before the addition of 100 nM triptolide. After 24 and 48 hours of treatment, cells were assessed for viability. […] Since the parvalbumin buffering experiments are done in the presence of extracellular calcium, the cell can operate normally in that intracellular calcium stores may be refilled. It is reasonable to expect then if calcium homeostasis is being affected (i.e., cytosolic calcium levels increase) by triptolide, then parvalbumin would eventually reach a saturation point. This might explain why the rescue from apoptosis is transient through the 24 hour time point but is lost by 48 hours.
(§2) All parvalbumin-GFP constructs and control vectors (Pusl, et al., 2002, J Biol Chem 277, 27517-27527) were a gift of Anton Bennett (Yale University). Hela cells were plated out on 6- or 12-well plates at a density of 5×10^5 or 1×10^5, respectively. […] Cell viability was assessed at 24 and 48 hours post triptolide addition by morphology and trypan blue dye exclusion.

HeLa cells = test: in vitro; assay type: cell-based; details: HeLa, 100 nM
Description: as §1, §2

[2] = test system: Pkd1^−/− murine model of polycystic kidney disease; assay type: in vivo, mice; details: for Alive Pkd1^−/− (birth): 0.07 mg/kg/day i.p. to pregnant mice; for Alive Pkd1^−/− (birth) / Ave. kidney wet weight Pkd1^−/−: E10.5 until birth; for Ave. kidney wet weight Pkd1^−/−: 0.07 mg/kg/day i.p.
Protocol: As per approved IACUC animal protocol, Pkd1^+/−/Pkd1^+/− mice were mated and pregnant mice were divided into control (DMSO) or experimental (triptolide) groups. A total volume of 100 μl of PBS with no more than 5% DMSO or DMSO/0.07 mg/kg/day triptolide was injected i.p. with a 28 G ½ insulin syringe. Mice were weighed and injected starting at E10.5 until birth. All pups were examined for length and developmental staging such as whisker formation. Kidneys were harvested, weighed, and fixed in 4% paraformaldehyde before histological preparation.
Kidneys were prepared by sagittal cross-sectioning and hematoxylin and eosin staining. All kidneys were photographed under the same magnification (4×) and cystic burden was computed using Image J analysis software (NIH). The area of cysts within the total area of the kidney (pixels) was calculated as a final percentage of cystic burden in the kidney. Immunohistochemical analysis of active caspase-3 was completed as per manufacturer's protocol.
Following successful Pkd1^+/− Pkd1^+/− matings, 0.07 mg/kg/day of triptolide or DMSO control was injected i.p. into pregnant mice until they gave birth. All pups were assessed for viability, length, developmental staging, and wet kidney weight. A total of 59 pups from DMSO treated females and 100 pups from triptolide treated females were examined for multiple parameters, such as genotypic distribution, developmental stage at time of birth, and average kidney weights (Table 1). […] Approximately 20% of all Pkd1^−/− mice were born alive from each treatment group. However, severe edematous abnormalities were obvious upon necropsy.

[3] = Pkd1^−/− pups, 0.07 mg/kg/day i.p. during gestation

Structure (SMILES): CC(C)[C@]12O[C@H]1[C@@H]1O[C@]13[C@]1(O[C@H]1C[C@H]1C4=C(CC[C@@]13C)C(=O)OC4)[C@@H]2O [triptolide]
- adverse effects ([1]; 0.07 mg/kg/day i.p.): no discernable adverse effects
- MTD ([1]; female, mouse, in vivo, ip, read-out: maximum tolerated dose): 0.07 mg/kg/day
- dose at which toxicity (resorption of all embryos or large percentage of stillborns) was most prominent ([1]; i.p., 0.01-0.15 mg/kg/day tested): ≥ 0.1 mg/kg/day
- cytotoxicity at 24 h, 0.1 µM (in vitro): 50%
- cell death in all transfection conditions (HeLa cells; by 48 hours): complete cell death
- apoptosis (HeLa cells; cytosolic parvalbumin (NES-PV-GFP), 24 hours): 15-20%
- Alive Pkd1^−/− (birth) [2]: Approximately 20%
- Alive Pkd1^−/− (birth) ([2]; listed as Triptolide): 4 (22%)
- Ave. kidney wet weight Pkd1^−/− ([2]; mean ± SE): 24.6 ± 0.8 mg
- Ave. kidney wet weight Pkd1^−/− ([2]; mean ± SE, listed as Triptolide): 21.8 ± 2.8 mg
- active caspase-3 immunoreactivity in kidney sections ([2]; Pkd1^−/− kidneys, 0.07 mg/kg/day i.p. during gestation): did not show any significant activation of the caspase pathway
- diameter of cyst lumens on average [2, 3]: smaller
- maximum cyst burden [2, 3]: 25%
- cystic burden (cyst area as percentage of total kidney area), average ([2]; Pkd1^−/− pups, 0.07 mg/kg/day i.p. during gestation, mean ± SE): 15±2.1%
- wet kidney weight or overall size of Pkd1^+/+ or Pkd1^+/− mice versus DMSO ([2]; mouse, in vivo): no significant difference
